pIC50: −log10 of the molar value.
System: SW1271 complex spheroids with HUVEC/MSC, growth, % test/control
Experiment: Anticancer human tumor SW1271 cell line growth inhibition [AhR];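 also: spheroids exposed to agents for 7 days before readout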
Details: for pIC50: curve of first compound; for viability, T/C: stronger effect = lower value
Method in brief: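 Spheroids combined tumor cells with HUVEC endothelial cells and human MSCs as stroma. AhR antagonists were paired with standard or investigational drugs, each dosed in half-log steps down from near clinical Cmax, or from 10 microM where Cmax was unknown.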

## CC(C)CC(NC(=O)C(Cc1ccccc1)NC(=O)c1cnccn1)B(O)O (stereo not given) + Cc1ccccc1N=Nc1ccc(NC(=O)c2ccnn2C)c(C)c1
Second compound 0.1 µM
  pIC50: 8.26
Second compound 0.316 µM
  pIC50: 8.27
Second compound 1 µM
  pIC50: 8.24
Second compound 3.16 µM
  pIC50: 8.24
Second compound 10 µM
  pIC50: 8.17
Second compound 0.1 µM, first compound 0.000949 µM
  viability, T/C: 105%
Second compound 0.1 µM, first compound 0.003 µM
  viability, T/C: 97%
Second compound 0.1 µM, first compound 0.00949 µM
  viability, T/C: 7.2%
Second compound 0.1 µM, first compound 0.03 µM
  viability, T/C: 1.26%
Second compound 0.1 µM, first compound 0.0949 µM
  viability, T/C: 0.41%
Second compound 0.1 µM, first compound 0.3 µM
  viability, T/C: 0.31%
Second compound 0.316 µM, first compound 0.000949 µM
  viability, T/C: 91.4%
Second compound 0.316 µM, first compound 0.003 µM
  viability, T/C: 90.3%
Second compound 0.316 µM, first compound 0.00949 µM
  viability, T/C: 11.3%
Second compound 0.316 µM, first compound 0.03 µM
  viability, T/C: 0.73%
Second compound 0.316 µM, first compound 0.0949 µM
  viability, T/C: 11.2%
Second compound 0.316 µM, first compound 0.3 µM
  viability, T/C: 6.11%
Second compound 1 µM, first compound 0.000949 µM
  viability, T/C: 123%
Second compound 1 µM, first compound 0.003 µM
  viability, T/C: 101%
Second compound 1 µM, first compound 0.00949 µM
  viability, T/C: 10.2%
Second compound 1 µM, first compound 0.03 µM
  viability, T/C: 1.95%
Second compound 1 µM, first compound 0.0949 µM
  viability, T/C: 1.1%
Second compound 1 µM, first compound 0.3 µM
  viability, T/C: 0.56%
Second compound 3.16 µM, first compound 0.000949 µM
  viability, T/C: 92.9%
Second compound 3.16 µM, first compound 0.003 µM
  viability, T/C: 89.4%
Second compound 3.16 µM, first compound 0.00949 µM
  viability, T/C: 19.4%
Second compound 3.16 µM, first compound 0.03 µM
  viability, T/C: 1.27%
Second compound 3.16 µM, first compound 0.0949 µM
  viability, T/C: 0.6%
Second compound 3.16 µM, first compound 0.3 µM
  viability, T/C: 0.68%
Second compound 10 µM, first compound 0.000949 µM
  viability, T/C: 93.1%
Second compound 10 µM, first compound 0.003 µM
  viability, T/C: 99.5%
Second compound 10 µM, first compound 0.00949 µM
  viability, T/C: 30.8%
Second compound 10 µM, first compound 0.03 µM
  viability, T/C: 2.17%
Second compound 10 µM, first compound 0.0949 µM
  viability, T/C: 0.87%
Second compound 10 µM, first compound 0.3 µM
  viability, T/C: 0.59%

Source: PubChem BioAssay AID1919017 (Molecular Pharmacology Branch, DTP, NCI, 2023)
